The compounds below were run against T1, PAF specific receptor binding site (human platelet membranes) (Homo sapiens, UniProt P25105) (assay: Inhibition of [3H]N-methylcarbamoyl-PAF binding to human platelet membranes). Conditions: drug concentration of 3 nM, trans configuration.
T1 construct: platelet membranes at a drug concentration of 3 nM; from tissue; host or cells: human platelet plasma membranes
Method: The ability of a compound of formula (I) to inhibit the PAF binding to its specific receptor binding site on rabbit or human platelet or PMN plasma membranes was measured by a recently developed assay.
The inhibition of ^3 [H]-PAF or ^3 [H]-N-methyl carbamoyl-TAF binding to the human or rabbit platelet or PMN plasma membrane by a PAF antagonist of formula (I) was determined by a method employing isotopic labeling and filtration techniques. Generally, a series of Tris-buffered solutions of the selected antagonist at predetermined concentrations were prepared. Each of these solutions contains 1 pmole of ^3 H-PAF, a known amount of the test antagonist, and a sufficient amount of the pH 7.5 Tris-buffer solution (10mM Tris, 0.25% bovine serum albumin, and 150 mM NaCl per ml water) to make the final volume of 1 ml. After adding into a set of test tubes each with 100 μg of the platelet plasma membrane suspension (S. B. Hwang, et. al., Biochemistry, Vol. 22 pp. 4756-4763, 1983) and one of the Tris-buffer solutions described above, the resulting mixture in each test tube was incubated at 0° C. for about one hours or until the reaction was complete. Two control samples, one of which (C1) contains all the ingredients described above except the antagonist and the other (C2) contains C1 plus a 100-fold excess of unlabeled PAF, were also prepared and incubated simultaneously with the test samples. After the incubation was completed, the contents of each test tube were filtered under vacuo through a Whatman GF/C fiberglass filter and the residue washed rapidly several times with a total of 20 ml cold (0°-5° C.) Tris-buffer solution. Each washed residue was then suspended in 10 ml scintillation solution (Aquasol 2, New England Nuclear, Conn.) and the radioactivity was counted in a Packard Tri-Carb 460CD Liquid Scintillation System. Defining the counts from a test sample as "Total binding with antagonist"; the counts from the control sample C1, as "Total binding C1 "; and the counts from the control sample C2 as "non-specific binding C2 ", the percent inhibition of each test antagonist can be determined by the following equations: [formula]

T1 sequence (P25105 whole entry): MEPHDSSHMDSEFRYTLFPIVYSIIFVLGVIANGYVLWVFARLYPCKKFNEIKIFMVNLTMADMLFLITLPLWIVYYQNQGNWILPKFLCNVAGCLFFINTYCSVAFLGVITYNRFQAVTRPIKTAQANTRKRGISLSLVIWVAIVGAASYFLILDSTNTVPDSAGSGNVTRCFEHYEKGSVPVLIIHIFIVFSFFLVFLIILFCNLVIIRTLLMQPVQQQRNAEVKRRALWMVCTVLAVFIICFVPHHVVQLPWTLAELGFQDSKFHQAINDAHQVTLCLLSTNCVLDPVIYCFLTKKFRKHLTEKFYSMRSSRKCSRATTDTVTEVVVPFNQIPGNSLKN

SMILES	inhibition at 0.003 µM
CCCS(=O)(=O)c1cc([C@@H]2CC[C@@H](c3cc(OC)c(OC)c(OC)c3)O2)cc(OC)c1OCCSc1ncc[nH]1 (relative stereo) [trans-2-[3-n-Propylsulfonyl-4-{2-(2-imidazolthio)ethoxy}-5-methoxyphenyl]-5-(3,4,5-trimethoxyphenyl) tetrahydrofuran]	60%
CCCS(=O)(=O)c1cc([C@@H]2CC[C@@H](c3cc(OC)c(OC)c(OC)c3)O2)cc(OC)c1OCCSc1nc[nH]n1 (relative stereo) [trans-2-[3-n-Propylsulfonyl-4-{2-(3-triazolthio)ethoxy}-5-methoxyphenyl]-5-(3,4,5-trimethoxyphenyl) tetrahydrofuran]	23%
CCCS(=O)(=O)c1cc([C@@H]2CC[C@@H](c3cc(OC)c(OC)c(OC)c3)O2)cc(OC)c1OCCSc1ccc(-c2nn[nH]n2)cc1 (relative stereo) [trans-2-[3-n-Propylsulfonyl-4-{2-(4-(2-tetrazo)phenylthio)ethoxy}-5-methoxyphenyl]-5-(3,4,5-trimethoxyphenyl)tetrahydrofuran]	52%
CCCS(=O)(=O)c1cc([C@H]2CC[C@H](c3cc(OC)c(OC)c(OC)c3)O2)cc(OC)c1OCCSc1ccc(C(=N)N)cc1 (relative stereo) [trans-2-[3-n-Propylsulfonyl-4-{2-(4-amidinophenylthio)ethoxy}-5-methoxyphenyl]-5-(3,4,5-trimethoxyphenyl)tetrahydrofuran]	60%
CCCS(=O)(=O)c1cc([C@H]2CC[C@H](c3cc(OC)c(OC)c(OC)c3)O2)cc(OC)c1OCCSc1ccc(C#N)cc1 (relative stereo) [trans-2-[3-n-Propylsulfonyl-4-{2-(4-cyanophenylthio)ethoxy}-5-methoxyphenyl]-5-(3,4,5-trimethoxyphenyl) tetrahydrofuran]	93%
CCCS(=O)(=O)c1cc([C@H]2CC[C@H](c3cc(OC)c(OC)c(OC)c3)O2)cc(OC)c1OCCSc1ccc(N(C)C)cc1 (relative stereo) [trans-2-[3-n-Propylsulfonyl-4-{2-(4-dimethylaminophenylthio)ethoxy}-5-methoxyphenyl]-5-(3,4,5-trimethoxyphenyl)tetrahydrofuran]	66%
CCCS(=O)(=O)c1cc([C@H]2CC[C@H](c3cc(OC)c(OC)c(OC)c3)O2)cc(OC)c1OCCSc1ccncc1 (relative stereo) [trans-2-[3-n-Propylsulfonyl-4-{2-(4-pyridylthio)ethoxy}-5-methoxyphenyl]-5-(3,4,5-trimethoxyphenyl) tetrahydrofuran]	73%
CCCS(=O)(=O)c1cc([C@@H]2CC[C@@H](c3cc(OC)c(OC)c(OC)c3)O2)cc(OC)c1OCCS(=O)(=O)c1ccccc1 (relative stereo) [trans-2-[3-n-Propylsulfonyl-4-{2-(Phenylsulfonyl)ethoxy}-5-methoxyphenyl]-5-(3,4,5-trimethoxyphenyl(tetrahydrofuran]	73%
CCCS(=O)(=O)c1cc([C@@H]2CC[C@@H](c3cc(OC)c(OC)c(OC)c3)O2)cc(OCCCN2CCOCC2)c1OCCCCCCO (relative stereo) [trans-2-]3-n-Propylsulfonyl-4-(6-hydroxyhexyloxy)-5-{3-(1-morpholino)n-propoxy}phenyl]-5-trimethoxyphenyl)tetrahydrofuran]	48%
CCCOc1c(OCCCc2cccnc2)cc([C@H]2CC[C@H](c3cc(OC)c(OC)c(OC)c3)O2)cc1S(=O)(=O)CC(C)=O (relative stereo) [trans-2-{3-(2-Oxopropylsulfonyl)-4-n-propoxy-5-[3-(3-pyridyl)propoxy}phenyl]-5-(3,4,5-trimethoxyphenyl) tetrahydrofuran]	62%
CCCOc1c(OCCCN2CCOCC2)cc([C@@H]2CC[C@@H](c3cc(OC)c(OC)c(OC)c3)O2)cc1S(=O)(=O)CC(C)=O [(-)-(2S,5S)-[3-(2-Oxopropylsulfonyl)-4-n-propoxy-5-{3-(1-morpholino)-n-propoxy}phenyl]-5-(3,4,5-trimethoxyphenyl)tetrahydrofuran]	41%

From patent US5114961A, “2,5-diaryl tetrahydrofurans and analogs thereof as PAF antagonists” (Merck & Co., Inc., priority 1990, dated 1992)
